Data: ChEMBL document CHEMBL1150976, “The selectivity of protein kinase inhibitors: a further update” (Biochem J, 2007)

Key:
[1] = biological target: Serine/threonine-protein kinase Nek6 (Homo sapiens) (UniProt Q9HC98); test: Percentage NEK6 activity remaining in the presence of 3uM inhibitor
[2] = biological target: Serine/threonine-protein kinase PAK 5 (Homo sapiens) (UniProt Q9P286); test: Percentage PAK5 activity remaining in the presence of 3uM inhibitor
[3] = biological target: Serine/threonine-protein kinase pim-1 (Homo sapiens, UniProt P11309); test: Percentage PIM1 activity remaining in the presence of 3uM inhibitor
[4] = biological target: Tyrosine-protein kinase Yes (Homo sapiens, UniProt P07947); test: Inhibition of Yes in the presence of 20uM ATP
[5] = biological target: Mitogen-activated protein kinase 10 (Homo sapiens) (UniProt P53779); test: Percentage JNK3 activity remaining in the presence of 3uM inhibitor
[6] = species on record: Rattus norvegicus; test: Percentage AMPK activity remaining in the presence of 3uM inhibitor
[7] = biological target: T1, Inhibitor of nuclear factor kappa-B kinase subunit beta (Homo sapiens) (UniProt O14920); test: Percentage IKK-beta activity remaining in the presence of 3uM inhibitor
T1 sequence (whole entry): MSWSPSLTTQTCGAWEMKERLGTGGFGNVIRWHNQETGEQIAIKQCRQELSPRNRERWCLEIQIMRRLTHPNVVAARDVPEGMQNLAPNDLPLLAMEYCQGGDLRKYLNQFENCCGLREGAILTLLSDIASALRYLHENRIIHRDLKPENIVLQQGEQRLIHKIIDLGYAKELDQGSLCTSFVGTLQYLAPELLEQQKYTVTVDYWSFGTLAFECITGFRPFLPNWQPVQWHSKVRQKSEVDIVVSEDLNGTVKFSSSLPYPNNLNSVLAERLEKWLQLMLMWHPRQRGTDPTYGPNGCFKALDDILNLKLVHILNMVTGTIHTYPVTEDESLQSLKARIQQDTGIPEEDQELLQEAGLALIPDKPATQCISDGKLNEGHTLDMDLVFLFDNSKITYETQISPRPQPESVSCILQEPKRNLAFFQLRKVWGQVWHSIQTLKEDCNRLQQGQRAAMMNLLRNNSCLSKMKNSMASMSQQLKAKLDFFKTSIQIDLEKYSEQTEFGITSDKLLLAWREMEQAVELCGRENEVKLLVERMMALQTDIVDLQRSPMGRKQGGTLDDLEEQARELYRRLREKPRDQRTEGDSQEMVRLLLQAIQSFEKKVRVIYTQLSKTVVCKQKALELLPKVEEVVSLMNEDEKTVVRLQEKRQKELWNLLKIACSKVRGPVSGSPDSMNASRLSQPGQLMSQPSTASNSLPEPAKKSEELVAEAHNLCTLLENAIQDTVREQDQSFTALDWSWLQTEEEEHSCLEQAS

[8] = biological target: Myosin light chain kinase, smooth muscle (Homo sapiens, UniProt Q15746); test: Percentage SmMLCK activity remaining in the presence of 3uM inhibitor
[9] = biological target: Casein kinase I isoform delta (Homo sapiens, UniProt P48730); test: Percentage CK1delta activity remaining in the presence of 3uM inhibitor
[10] = biological target: MAP kinase-activated protein kinase 2 (Homo sapiens) (UniProt P49137); test: Percentage MAPKAPK2 activity remaining in the presence of 2uM inhibitor
[11] = biological target: Dual specificity tyrosine-phosphorylation-regulated kinase 1A (Homo sapiens) (UniProt Q13627); test: Percentage DYRK1A activity remaining in the presence of 2uM inhibitor; conditions: filed as antagonist
[12] = biological target: Mitogen-activated protein kinase 11 (Homo sapiens) (UniProt Q15759); test: Percentage p38beta activity remaining in the presence of 2uM inhibitor
[13] = biological target: Homeodomain-interacting protein kinase 3 (Homo sapiens) (UniProt Q9H422); test: Percentage HIPK3 activity remaining in the presence of 2uM inhibitor; conditions: filed as antagonist
[14] = biological target: MAP kinase-interacting serine/threonine-protein kinase 2 (Homo sapiens) (UniProt Q9HBH9); test: Percentage MNK2 activity remaining in the presence of 2uM inhibitor
[15] = biological target: Proto-oncogene tyrosine-protein kinase Src (Gallus gallus) (UniProt P00523); test: Percentage Src activity remaining in the presence of 2uM inhibitor
[16] = biological target: T2, Aurora kinase C (Homo sapiens) (UniProt Q9UQB9); test: Percentage Aurora C activity remaining in the presence of 2uM inhibitor
T2 sequence (whole entry): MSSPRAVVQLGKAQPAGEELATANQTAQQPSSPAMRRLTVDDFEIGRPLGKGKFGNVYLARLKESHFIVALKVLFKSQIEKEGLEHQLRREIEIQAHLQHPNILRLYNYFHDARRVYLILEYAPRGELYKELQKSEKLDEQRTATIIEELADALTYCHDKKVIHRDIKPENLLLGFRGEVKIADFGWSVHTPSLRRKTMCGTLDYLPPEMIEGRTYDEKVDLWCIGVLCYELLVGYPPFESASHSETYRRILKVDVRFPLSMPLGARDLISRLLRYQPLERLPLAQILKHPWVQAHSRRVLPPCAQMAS

[17] = biological target: T3, Serine/threonine-protein kinase Sgk1 (Homo sapiens) (UniProt O00141); test: Percentage SGK1 activity remaining in the presence of 2uM inhibitor
T3 sequence (whole entry): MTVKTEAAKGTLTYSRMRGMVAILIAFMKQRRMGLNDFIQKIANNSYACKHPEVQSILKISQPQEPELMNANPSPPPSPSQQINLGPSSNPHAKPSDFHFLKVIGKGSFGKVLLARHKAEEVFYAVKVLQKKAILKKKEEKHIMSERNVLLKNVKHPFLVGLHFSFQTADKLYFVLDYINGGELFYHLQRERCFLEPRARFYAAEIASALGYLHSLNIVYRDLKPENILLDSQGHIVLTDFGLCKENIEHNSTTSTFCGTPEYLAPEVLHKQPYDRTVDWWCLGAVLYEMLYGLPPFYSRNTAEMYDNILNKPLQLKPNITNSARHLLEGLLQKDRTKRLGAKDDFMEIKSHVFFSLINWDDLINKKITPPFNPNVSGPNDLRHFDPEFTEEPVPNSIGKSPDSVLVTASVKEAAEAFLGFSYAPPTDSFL

[18] = biological target: Serine/threonine-protein kinase pim-2 (Homo sapiens, UniProt Q9P1W9); test: Percentage PIM2 activity remaining in the presence of 2uM inhibitor
[19] = biological target: RAC-alpha serine/threonine-protein kinase (Homo sapiens) (UniProt P31749); test: Percentage PKBalpha activity remaining in the presence of 2uM inhibitor
[20] = biological target: Protein kinase C alpha type (Homo sapiens) (UniProt P17252); test: Percentage PKCalpha activity remaining in the presence of 25uM inhibitor

Chain of Serine/threonine-protein kinase pim-2 (Q9P1W9 whole entry, looked up): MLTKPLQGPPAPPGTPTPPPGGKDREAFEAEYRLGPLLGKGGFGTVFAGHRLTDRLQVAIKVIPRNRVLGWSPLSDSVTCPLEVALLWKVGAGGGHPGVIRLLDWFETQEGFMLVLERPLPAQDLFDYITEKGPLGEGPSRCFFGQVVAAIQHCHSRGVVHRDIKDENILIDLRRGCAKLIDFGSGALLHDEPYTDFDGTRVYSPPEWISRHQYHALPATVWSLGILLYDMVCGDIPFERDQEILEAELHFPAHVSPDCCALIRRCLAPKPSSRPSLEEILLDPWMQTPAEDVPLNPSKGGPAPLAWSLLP
Chain of Mitogen-activated protein kinase 11 (Homo sapiens) (Q15759 whole entry): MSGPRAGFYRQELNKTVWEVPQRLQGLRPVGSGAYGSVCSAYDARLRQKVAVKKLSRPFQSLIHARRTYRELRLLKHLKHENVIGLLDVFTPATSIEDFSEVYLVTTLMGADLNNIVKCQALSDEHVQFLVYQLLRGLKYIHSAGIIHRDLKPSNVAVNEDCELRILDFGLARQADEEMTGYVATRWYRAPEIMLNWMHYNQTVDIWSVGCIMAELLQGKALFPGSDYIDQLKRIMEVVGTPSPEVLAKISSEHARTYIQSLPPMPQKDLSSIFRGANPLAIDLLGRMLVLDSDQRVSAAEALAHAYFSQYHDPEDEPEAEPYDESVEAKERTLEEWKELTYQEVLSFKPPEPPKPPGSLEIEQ
Chain of Mitogen-activated protein kinase 10 (Homo sapiens) (P53779 whole entry): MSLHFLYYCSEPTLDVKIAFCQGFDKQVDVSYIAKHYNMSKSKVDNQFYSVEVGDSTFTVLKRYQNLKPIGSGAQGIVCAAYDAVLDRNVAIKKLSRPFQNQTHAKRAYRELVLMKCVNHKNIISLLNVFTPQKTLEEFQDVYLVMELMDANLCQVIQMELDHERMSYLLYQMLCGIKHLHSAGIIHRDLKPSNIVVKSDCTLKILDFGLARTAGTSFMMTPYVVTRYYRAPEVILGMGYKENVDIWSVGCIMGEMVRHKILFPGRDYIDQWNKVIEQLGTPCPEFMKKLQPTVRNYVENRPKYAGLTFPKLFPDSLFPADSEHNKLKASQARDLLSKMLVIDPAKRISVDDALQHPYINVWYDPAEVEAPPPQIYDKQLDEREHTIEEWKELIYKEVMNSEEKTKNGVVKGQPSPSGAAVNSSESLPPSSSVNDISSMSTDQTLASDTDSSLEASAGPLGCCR
Chain of Serine/threonine-protein kinase PAK 5 (Homo sapiens) (Q9P286 whole entry, looked up): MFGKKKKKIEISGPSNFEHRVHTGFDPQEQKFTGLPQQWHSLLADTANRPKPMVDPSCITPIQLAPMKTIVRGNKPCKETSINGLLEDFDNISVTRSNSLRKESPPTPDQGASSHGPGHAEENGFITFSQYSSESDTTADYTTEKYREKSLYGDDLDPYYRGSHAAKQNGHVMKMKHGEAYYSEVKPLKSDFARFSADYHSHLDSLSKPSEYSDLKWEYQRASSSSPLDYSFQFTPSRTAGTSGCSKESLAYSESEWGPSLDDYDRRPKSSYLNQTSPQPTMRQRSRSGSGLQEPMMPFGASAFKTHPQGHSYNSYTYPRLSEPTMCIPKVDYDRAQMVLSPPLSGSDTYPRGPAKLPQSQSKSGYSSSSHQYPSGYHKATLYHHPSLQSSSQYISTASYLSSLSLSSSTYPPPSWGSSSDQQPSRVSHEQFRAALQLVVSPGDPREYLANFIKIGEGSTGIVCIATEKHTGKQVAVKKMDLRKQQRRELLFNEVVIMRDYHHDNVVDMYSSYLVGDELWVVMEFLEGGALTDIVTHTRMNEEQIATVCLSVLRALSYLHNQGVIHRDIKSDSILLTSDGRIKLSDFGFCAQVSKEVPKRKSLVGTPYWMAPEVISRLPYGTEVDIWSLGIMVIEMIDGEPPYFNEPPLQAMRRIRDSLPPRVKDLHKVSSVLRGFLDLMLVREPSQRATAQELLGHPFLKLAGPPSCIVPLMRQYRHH
Chain of Homeodomain-interacting protein kinase 3 (Homo sapiens) (Q9H422 whole entry, looked up): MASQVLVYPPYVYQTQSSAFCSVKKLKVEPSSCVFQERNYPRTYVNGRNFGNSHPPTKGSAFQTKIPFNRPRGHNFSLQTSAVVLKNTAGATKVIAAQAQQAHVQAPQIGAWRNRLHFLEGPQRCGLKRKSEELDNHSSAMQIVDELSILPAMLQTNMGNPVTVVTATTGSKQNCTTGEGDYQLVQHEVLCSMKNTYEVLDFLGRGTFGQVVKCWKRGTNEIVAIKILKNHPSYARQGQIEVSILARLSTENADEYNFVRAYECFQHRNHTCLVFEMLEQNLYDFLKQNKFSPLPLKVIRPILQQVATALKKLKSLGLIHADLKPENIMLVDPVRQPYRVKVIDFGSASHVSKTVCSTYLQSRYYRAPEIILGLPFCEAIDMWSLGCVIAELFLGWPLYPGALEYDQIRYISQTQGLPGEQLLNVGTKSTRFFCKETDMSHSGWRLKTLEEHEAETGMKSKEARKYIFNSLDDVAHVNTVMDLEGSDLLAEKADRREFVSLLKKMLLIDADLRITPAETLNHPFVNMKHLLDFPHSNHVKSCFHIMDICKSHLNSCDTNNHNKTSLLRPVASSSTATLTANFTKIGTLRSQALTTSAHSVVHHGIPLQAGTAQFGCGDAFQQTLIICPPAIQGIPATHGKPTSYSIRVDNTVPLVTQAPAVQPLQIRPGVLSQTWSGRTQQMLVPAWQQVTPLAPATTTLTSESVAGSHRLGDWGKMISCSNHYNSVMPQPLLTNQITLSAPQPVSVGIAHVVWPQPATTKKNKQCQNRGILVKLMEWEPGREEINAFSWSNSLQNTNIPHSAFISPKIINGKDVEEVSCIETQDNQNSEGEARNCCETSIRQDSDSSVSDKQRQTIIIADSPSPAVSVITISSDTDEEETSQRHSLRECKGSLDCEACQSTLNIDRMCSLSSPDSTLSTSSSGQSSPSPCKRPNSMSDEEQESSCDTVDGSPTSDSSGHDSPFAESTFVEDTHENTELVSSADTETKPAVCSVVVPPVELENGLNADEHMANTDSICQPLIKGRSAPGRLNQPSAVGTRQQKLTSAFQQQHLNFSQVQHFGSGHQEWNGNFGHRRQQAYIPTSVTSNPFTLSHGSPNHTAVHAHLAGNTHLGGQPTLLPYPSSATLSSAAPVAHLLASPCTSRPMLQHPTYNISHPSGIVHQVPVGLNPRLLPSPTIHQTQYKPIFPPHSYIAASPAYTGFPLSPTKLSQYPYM
Chain of Serine/threonine-protein kinase pim-1 (P11309 whole entry, looked up): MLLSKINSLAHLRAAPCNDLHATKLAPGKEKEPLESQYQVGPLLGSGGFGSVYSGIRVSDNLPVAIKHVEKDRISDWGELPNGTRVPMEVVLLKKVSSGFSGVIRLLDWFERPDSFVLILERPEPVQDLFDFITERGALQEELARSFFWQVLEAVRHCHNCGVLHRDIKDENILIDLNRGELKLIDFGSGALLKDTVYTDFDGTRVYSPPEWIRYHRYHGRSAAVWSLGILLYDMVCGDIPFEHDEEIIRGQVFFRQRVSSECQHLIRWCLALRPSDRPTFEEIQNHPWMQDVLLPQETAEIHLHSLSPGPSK
Chain of MAP kinase-activated protein kinase 2 (Homo sapiens) (P49137 whole entry, looked up): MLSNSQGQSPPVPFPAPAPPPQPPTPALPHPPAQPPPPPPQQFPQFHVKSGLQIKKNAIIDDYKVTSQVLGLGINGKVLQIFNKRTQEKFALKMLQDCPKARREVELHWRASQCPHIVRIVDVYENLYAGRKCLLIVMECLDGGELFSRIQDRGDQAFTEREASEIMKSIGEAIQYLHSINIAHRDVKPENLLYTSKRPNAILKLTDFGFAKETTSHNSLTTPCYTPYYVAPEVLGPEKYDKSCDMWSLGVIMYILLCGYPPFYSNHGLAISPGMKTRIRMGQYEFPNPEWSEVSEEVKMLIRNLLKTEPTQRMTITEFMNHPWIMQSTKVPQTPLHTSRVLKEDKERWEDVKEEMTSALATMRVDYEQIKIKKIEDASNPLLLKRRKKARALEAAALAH
Chain of RAC-alpha serine/threonine-protein kinase (Homo sapiens) (P31749 whole entry): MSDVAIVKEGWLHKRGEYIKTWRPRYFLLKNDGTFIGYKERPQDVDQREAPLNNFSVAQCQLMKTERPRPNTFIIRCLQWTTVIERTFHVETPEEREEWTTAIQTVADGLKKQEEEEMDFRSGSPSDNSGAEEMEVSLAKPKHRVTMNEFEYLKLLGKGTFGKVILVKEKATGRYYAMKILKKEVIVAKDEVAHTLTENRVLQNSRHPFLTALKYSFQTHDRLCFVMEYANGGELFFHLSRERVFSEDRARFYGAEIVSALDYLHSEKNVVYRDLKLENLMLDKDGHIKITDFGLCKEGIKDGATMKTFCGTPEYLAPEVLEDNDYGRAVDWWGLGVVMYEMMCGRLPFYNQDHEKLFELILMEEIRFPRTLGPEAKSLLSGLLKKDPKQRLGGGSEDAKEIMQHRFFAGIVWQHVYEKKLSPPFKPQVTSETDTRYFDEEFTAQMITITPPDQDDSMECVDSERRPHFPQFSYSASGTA
Chain of MAP kinase-interacting serine/threonine-protein kinase 2 (Homo sapiens) (Q9HBH9 whole entry, looked up): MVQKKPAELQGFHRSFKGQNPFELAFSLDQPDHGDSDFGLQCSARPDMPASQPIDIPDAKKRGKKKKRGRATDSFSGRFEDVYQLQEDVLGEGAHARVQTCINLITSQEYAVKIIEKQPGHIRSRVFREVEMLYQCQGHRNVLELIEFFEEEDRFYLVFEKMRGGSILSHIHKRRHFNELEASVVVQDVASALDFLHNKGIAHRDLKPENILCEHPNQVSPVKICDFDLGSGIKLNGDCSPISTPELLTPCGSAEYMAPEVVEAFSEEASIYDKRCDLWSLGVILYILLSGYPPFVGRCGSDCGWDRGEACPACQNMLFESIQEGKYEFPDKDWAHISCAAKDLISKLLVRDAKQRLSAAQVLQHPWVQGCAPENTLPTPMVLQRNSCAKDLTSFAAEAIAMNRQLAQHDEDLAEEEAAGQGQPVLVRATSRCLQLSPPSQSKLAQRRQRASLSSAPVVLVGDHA

With `Cc1ccc(-c2c(C(=O)CF)n(CCCO)c3ncnc(N)c23)cc1` the Activity [1] was 90%, the Activity [2] was 88% and the Activity [3] was 61%. For the same molecule, the IC50 [4] was 510 nM (antagonist), the Activity [5] was 89% and the Activity [6] was 79%. It also gave an Activity [7] of 92%, an Activity [8] of 82% and an Activity [9] of 63%.

Molecule `Cn1cc(C2=C(c3ccc(Cl)cc3Cl)C(=O)NC2=O)c2ccccc21` has an Activity [10] of 82%, an Activity [11] of 8% and an Activity [12] of 85%. For the same molecule, the Activity [13] was 41%, the Activity [14] was 94% and the Activity [15] was 83%. For the same molecule, the Activity [16] was 79%, the Activity [17] was 100% and the Activity [18] was 81%. The Activity [19] was 88%.

In the case of `NCCNS(=O)(=O)c1ccc(Cl)c2ccncc12`, the Activity [20] is reported as 86%.
